Data from patent US20070191396A1, “Fungicidal mixtures” (BASF Aktiengesellschaft, priority 2004, published 2007).

System: Pyrenophora teres
Assay: Activity against net blotch of barley caused by Pyrenophora teres, 1 day protective application
Format: in vivo
Conditions: individual active compound, barley seedlings "Hanna", assessed after 6 days
Experimental: The active compounds, separately, were prepared as a stock solution comprising 25 mg of active compound which was made up to 10 ml using a mixture of acetone and/or DMSO and the emulsifier Uniperol® EL (wetting agent having an emulsifying and dispersing action based on ethoxylated alkylphenols) in a ratio by volume of solvent/emulsifier of 99:1. The mixture was then made up to 100 ml with water. The active compounds or mixtures were diluted or mixed with water to the stated concentration.
Activity against net blotch of barley caused by Pyrenophora teres, 1 day protective application
Leaves of potted barley seedlings of the “Hanna” cultivar were sprayed to runoff point with an aqueous suspension having the concentration of active compound stated below. 24 hours after the spray coating had dried on, the test plants were inoculated with an aqueous spore suspension of Pyrenophora [syn. Drechslera] teres, the net blotch pathogen. […] After 6 days, the extent of the development of the disease was determined visually in % infection of the total leaf area.
The visually determined percentages of infected leaf areas were converted into efficacies in % of the untreated control:
The efficacy (E) is calculated as follows using Abbot's formula: E=(1−[…] )·100 α corresponds to the fungal infection of the treated plants in % and β corresponds to the fungal infection of the untreated (control) plants in % […]

SMILES: CC1CCN(c2c(-c3c(F)cc(F)cc3F)c(Cl)nc3ncnn23)CC1 [I, 5-chloro-7-(4-methylpiperidin-1-yl)-6-(2,4,6-trifluorophenyl)[1,2,4]triazolo[1,5-a]pyrimidine]
- Efficacy in % of the untreated control (1.25 ppm in the spray liquor): 55 % of the untreated control
- Efficacy in % of the untreated control (5 ppm in the spray liquor): 78 % of the untreated control
